Measured values published in BindingDB's records for doi:10.1021/jm950720u (Tohoku College of Pharmacy, 1996).

Target: T1, Aromatase (Homo sapiens, UniProt P11511)
T1 sequence (P11511 whole entry): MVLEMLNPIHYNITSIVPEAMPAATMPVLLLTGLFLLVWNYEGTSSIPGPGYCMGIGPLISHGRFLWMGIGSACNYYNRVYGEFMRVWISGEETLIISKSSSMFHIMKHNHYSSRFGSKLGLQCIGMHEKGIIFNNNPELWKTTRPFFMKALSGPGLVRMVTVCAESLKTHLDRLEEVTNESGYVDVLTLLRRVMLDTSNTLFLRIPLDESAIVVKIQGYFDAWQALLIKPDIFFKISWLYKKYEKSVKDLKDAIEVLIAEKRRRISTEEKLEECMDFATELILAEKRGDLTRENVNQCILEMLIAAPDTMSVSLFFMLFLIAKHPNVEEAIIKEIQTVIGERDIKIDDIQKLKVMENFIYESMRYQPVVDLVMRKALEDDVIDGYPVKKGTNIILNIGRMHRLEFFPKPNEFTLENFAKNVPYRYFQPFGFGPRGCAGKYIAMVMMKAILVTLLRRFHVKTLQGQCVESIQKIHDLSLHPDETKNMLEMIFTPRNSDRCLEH
Assay: Aromatase Assay
Details: pH 7.5; 37 °C
Procedure: The enzyme activity was assayed by measuring the 3H-labeled H2O formed from [1beta-3H] Androstenedione during aromatization. After incubation, the reaction was terminated by CHCl3 extraction and centrifugation. Aliquots of the water phase were assayed for the presence of 3H2O by counting using a liquid scintillation spectrometer.

Q: How did the IC50 turn out when C[C@]12CCC(=O)C=C1CCC1C2CC[C@]2(C)C(=O)CCC12 (stereo partly drawn) [[1beta-3H] androstenedione] was run?
A: 0.3 µM

Q: What about the Ki of the same compound?
A: 0.02 µM
